Assay results from article PMC6911621 (Cancer research, 2019).
Ends that are not written are not given here. Peptide text beside a SMILES is read from it. * marks the point of attachment. Biotin = O=C1N[C@H]2[C@H](CS[C@H]2CCCCC(=O)*)N1; Cbz = O=C(OCc1ccccc1)*; Ahx = NCCCCCC(=O)O; CH2F = FC*

Columns and labels:
tumor cells [1] = assay: HMGB1 release; format: cell-based; conditions: Supplementary Fig. S4F and G
tumor cells [2] = assay: Tumor cell death with pan-caspase inhibitor; format: cell-based; conditions: plus cell-permeable MFF peptide #8–11, Supplementary Fig. S4D
[3] = biological target: endogenous voltage-dependent anion channel-1 (VDAC1) (human (endogenous in PC3)) (UniProt P21796)
Chain of endogenous voltage-dependent anion channel-1 (VDAC1) (human (endogenous in PC3)) (P21796 whole entry): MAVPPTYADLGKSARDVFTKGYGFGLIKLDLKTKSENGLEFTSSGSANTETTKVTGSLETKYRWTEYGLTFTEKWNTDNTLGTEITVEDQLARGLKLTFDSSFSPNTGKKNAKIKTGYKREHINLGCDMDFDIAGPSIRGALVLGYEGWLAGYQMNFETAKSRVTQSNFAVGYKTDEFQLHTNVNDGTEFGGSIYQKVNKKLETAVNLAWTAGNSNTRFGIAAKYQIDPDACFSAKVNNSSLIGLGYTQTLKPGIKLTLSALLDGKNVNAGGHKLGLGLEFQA

Molecule: MFF-DD mutant peptide #8–11: MFF peptide #8–11 containing the double mutation Arg225Asp/Arg236Asp (DD) ({Biotin-Ahx}-RQIKIWFQNRRMKSADGILSLIQSSTDRAYQQIL)
- HMGB1 release (tumor cells [1]): did not cause HMGB1 release

Molecule: COC(=O)C[C@H](NC(=O)[C@H](C)NC(=O)[C@@H](NC(=O)OCc1ccccc1)C(C)C)C(=O)CF [Z-VAD-fmk] (Cbz-Val-Ala-Asp(OMe)-CH2F)
- reversal of cell death induced by cell-permeable MFF peptide #8–11 (tumor cells [2]): did not significantly reduce tumor cell death

Molecule: {Biotin-Ahx}-RQIKIWFQNRRMKSARGILSLIQSSTRRAYQQIL [cell-permeable MFF peptide #8-11]
- other [3]: 10 µM
